Experimental data from PubChem BioAssay AID330 (DTP/NCI, 2004).
“And” between values parts separate entries of the source, which are not always exact repeats. Equal entries are not always repeated. Inconclusive results and toxic doses are left out.

Tested on: P388 leukemia ip, CD2F1 mice, survival T/C
Test: NCI In Vivo Anticancer Drug Screen. Data for tumor model P388 Leukemia (intraperitoneal) in CD2F1 (CDF1) mice
Conditions: endpoint: median survival time, higher = longer survival
In short: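 Mice carrying the transplanted tumor received test compound or vehicle. Survival was recorded in each group, and the value is the treated-group measurement divided by that of the vehicle-treated control group.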

[1] = dose: 200.0 mg/kg/injection, schedule: Q01DX009 (ip), vehicle: saline
[2] = dose: 12.5 mg/kg/injection, schedule: Q01DX009 (ip), vehicle: distilled water + Tween-80
[3] = dose: 25.0 mg/kg/injection, schedule: Q01DX009 (ip), vehicle: distilled water + Tween-80
[4] = dose: 50.0 mg/kg/injection, schedule: Q01DX009 (ip), vehicle: distilled water + Tween-80
[5] = dose: 100.0 mg/kg/injection, schedule: Q01DX009 (ip), vehicle: distilled water + Tween-80
[6] = dose: 50.0 mg/kg/injection, schedule: Q01DX009 (ip), vehicle: saline with Tween-80
[7] = dose: 100.0 mg/kg/injection, schedule: Q01DX009 (ip), vehicle: saline with Tween-80
[8] = dose: 200.0 mg/kg/injection, schedule: Q01DX009 (ip), vehicle: saline with Tween-80
[9] = dose: 100.0 mg/kg/injection, schedule: Q04DX003 (ip), vehicle: Klucel (hydroxypropylcellulose) (HPC)
[10] = dose: 200.0 mg/kg/injection, schedule: Q04DX003 (ip), vehicle: Klucel (hydroxypropylcellulose) (HPC)

CSc1nc(N)c(C(=O)Nc2ccccc2)s1
T/C (dose: 50.0 mg/kg/injection, schedule: Q01DX009 (ip), vehicle: Klucel (hydroxypropylcellulose) (HPC)): 103 % of control
T/C (dose: 100.0 mg/kg/injection, schedule: Q01DX009 (ip), vehicle: Klucel (hydroxypropylcellulose) (HPC)): 101 % of control
T/C (dose: 200.0 mg/kg/injection, schedule: Q01DX009 (ip), vehicle: Klucel (hydroxypropylcellulose) (HPC)): 100 % of control

CC/C(=C(\c1ccccc1)c1ccc(OCCNC)cc1)c1ccccc1
T/C (dose: 15.0 mg/kg/injection, schedule: Q01DX005 (ip), vehicle: Klucel (hydroxypropylcellulose) (HPC)): 98 % of control
T/C (dose: 30.0 mg/kg/injection, schedule: Q01DX005 (ip), vehicle: Klucel (hydroxypropylcellulose) (HPC)): 88 % of control
T/C (dose: 60.0 mg/kg/injection, schedule: Q01DX005 (ip), vehicle: Klucel (hydroxypropylcellulose) (HPC)): 92 % of control

NC(CC(=O)NO)C(=O)O (centres undefined)
T/C [1]: 110 % of control
T/C (dose: 400.0 mg/kg/injection, schedule: Q01DX009 (ip), vehicle: saline): 120 % of control

O=S(=O)(SC(Cl)(Cl)Cl)c1ccc(Cl)cc1
T/C (dose: 12.5 mg/kg/injection, schedule: Q01DX009 (ip), vehicle: saline sonified): 100 % of control
T/C (dose: 25.0 mg/kg/injection, schedule: Q01DX009 (ip), vehicle: saline sonified): 100 % of control
T/C (dose: 50.0 mg/kg/injection, schedule: Q01DX009 (ip), vehicle: saline sonified): 100 % of control

NC(CCl)=NC1CCCCC1
T/C (dose: 10.0 mg/kg/injection, schedule: Q04DX003 (ip), vehicle: saline): 109 % of control
T/C (dose: 15.0 mg/kg/injection, schedule: Q04DX003 (ip), vehicle: saline): 107 % of control
T/C (dose: 22.0 mg/kg/injection, schedule: Q04DX003 (ip), vehicle: saline): 111 % of control
T/C (dose: 33.0 mg/kg/injection, schedule: Q04DX003 (ip), vehicle: saline): 116 % of control

CCc1cc(C2C(=O)c3ccccc3C2=O)cc(CC)c1O
T/C (dose: 100.0 mg/kg/injection, schedule: Q04DX002 (ip), vehicle: saline): 107 % of control
T/C (dose: 200.0 mg/kg/injection, schedule: Q04DX002 (ip), vehicle: saline): 105 % of control
T/C (dose: 400.0 mg/kg/injection, schedule: Q04DX002 (ip), vehicle: saline): 110 % of control

CC(=O)NCCc1nc(-c2nc(C(=O)O)cs2)cs1
T/C [2]: 102 % of control
T/C [3]: 100 % of control
T/C [4]: 102 % of control
T/C [5]: 100 % of control

O=C(O)CC1(c2ccccc2)CCCCC1
T/C [6]: 103 % of control
T/C [7]: 100 % of control
T/C [8]: 102 % of control

CCOC(=O)c1ccc(NC(=O)Nc2scc[n+]2C)cc1
T/C [2]: 93 % of control
T/C [3]: 102 % of control
T/C [4]: 108 % of control
T/C [5]: 100 % of control
T/C (dose: 200.0 mg/kg/injection, schedule: Q01DX009 (ip), vehicle: distilled water + Tween-80): 90 % of control

COc1ccc2c(c1O)-c1cccc3c1[C@@H](C2)N(CCOC(=O)NCCCl)CC3
T/C (dose: 9.38 mg/kg/injection, schedule: Q04DX003 (ip), vehicle: distilled water + Tween-80): 101 % of control
T/C (dose: 18.75 mg/kg/injection, schedule: Q04DX003 (ip), vehicle: distilled water + Tween-80): 99 % of control
T/C (dose: 37.5 mg/kg/injection, schedule: Q04DX003 (ip), vehicle: distilled water + Tween-80): 97 % of control
T/C (dose: 75.0 mg/kg/injection, schedule: Q04DX003 (ip), vehicle: distilled water + Tween-80): 99 % of control
T/C (dose: 150.0 mg/kg/injection, schedule: Q04DX003 (ip), vehicle: distilled water + Tween-80): 99 % of control
T/C (dose: 300.0 mg/kg/injection, schedule: Q04DX003 (ip), vehicle: distilled water + Tween-80): 105 % of control

NC(=S)c1ccc(N)cc1
T/C [9]: 100 % of control
T/C [10]: 106 % of control

C[n+]1ccc(C(=O)O)cc1 (tested in a mixture with another compound)
T/C (dose: 100.0 mg/kg/injection, schedule: Q04DX003 (ip), vehicle: saline): 104 % of control
T/C (dose: 200.0 mg/kg/injection, schedule: Q04DX003 (ip), vehicle: saline): 98 % of control
T/C (dose: 400.0 mg/kg/injection, schedule: Q04DX003 (ip), vehicle: saline): 98 % of control

CCN(CC)N=Nc1ccccc1-c1nc(N)c2ccccc2n1
T/C (dose: 12.5 mg/kg/injection, schedule: Q04DX003 (ip), vehicle: Klucel (hydroxypropylcellulose) (HPC)): 105 % of control
T/C (dose: 25.0 mg/kg/injection, schedule: Q04DX003 (ip), vehicle: Klucel (hydroxypropylcellulose) (HPC)): 102 % of control and 103 % of control and 94 % of control
T/C (dose: 50.0 mg/kg/injection, schedule: Q04DX003 (ip), vehicle: Klucel (hydroxypropylcellulose) (HPC)): 98 % of control and 111 % of control and 91 % of control
T/C [9]: 102 % of control (2×) and 94 % of control
T/C [10]: 106 % of control and 119 % of control and 86 % of control

CCOP(=O)(OCC)C1OCCCO1
T/C (dose: 50.0 mg/kg/injection, schedule: Q01DX009 (ip), vehicle: saline): 102 % of control
T/C (dose: 100.0 mg/kg/injection, schedule: Q01DX009 (ip), vehicle: saline): 98 % of control
T/C [1]: 106 % of control

O=C(N/N=C\C12CC3CC(CC(C3)C1)C2)c1ccncc1
T/C [6]: 96 % of control
T/C [7]: 90 % of control

C/C=C/C[P+](c1ccccc1)(c1ccccc1)c1cccc2ccccc12
T/C (dose: 6.25 mg/kg/injection, schedule: Q04DX002 (ip), vehicle: saline with Tween-80): 121 % of control
T/C (dose: 12.5 mg/kg/injection, schedule: Q04DX002 (ip), vehicle: saline with Tween-80): 99 % of control
T/C (dose: 25.0 mg/kg/injection, schedule: Q04DX002 (ip), vehicle: saline with Tween-80): 108 % of control

OCC1(C(O)(C2CC2)C2(CO)CC2)CC1
T/C (dose: 50.0 mg/kg/injection, schedule: Q01DX005 (ip), vehicle: saline with Tween-80): 105 % of control
T/C (dose: 100.0 mg/kg/injection, schedule: Q01DX005 (ip), vehicle: saline with Tween-80): 105 % of control
T/C (dose: 200.0 mg/kg/injection, schedule: Q01DX005 (ip), vehicle: saline with Tween-80): 100 % of control

COc1cc(C2c3cc4c(cc3[C@@H](OC3OC5CO[C@@H](C)OC5C(O)C3O)[C@H]3COC(=O)C23)OCO4)cc(OC)c1OC (some centres undefined)
T/C (dose: 16.0 mg/kg/injection, schedule: Q01DX005 (ip), vehicle: saline): 163 % of control
T/C (dose: 32.0 mg/kg/injection, schedule: Q01DX005 (ip), vehicle: saline): 166 % of control
T/C (dose: 64.0 mg/kg/injection, schedule: Q01DX005 (ip), vehicle: saline): 153 % of control

C=C1CC2(CCC3(C)C(CCC4C5CCC(=O)C5(C)CCC43)C2)OC1=O (centres undefined)
T/C (dose: 100.0 mg/kg/injection, schedule: Q04DX002 (ip), vehicle: saline with Tween-80): 95 % of control
T/C (dose: 200.0 mg/kg/injection, schedule: Q04DX002 (ip), vehicle: saline with Tween-80): 93 % of control
T/C (dose: 400.0 mg/kg/injection, schedule: Q04DX002 (ip), vehicle: saline with Tween-80): 96 % of control

CC(C)(C)SC(=O)C1CCCCC1
T/C [6]: 103 % of control
T/C [7]: 104 % of control

CCCCCCCCCCCCCCCC[N+]1(CC)CCCCCC1
T/C (dose: 0.04 mg/kg/injection, schedule: Q01DX009 (ip), vehicle: saline): 110 % of control
T/C (dose: 0.09 mg/kg/injection, schedule: Q01DX009 (ip), vehicle: saline): 103 % of control and 88 % of control
T/C (dose: 0.19 mg/kg/injection, schedule: Q01DX009 (ip), vehicle: saline): 89 % of control

CC(C)OC1=C2CCCCC2=[N+]2CCc3ccccc3C2C1 (centres undefined)
T/C (dose: 6.25 mg/kg/injection, schedule: Q04DX003 (ip), vehicle: saline with Tween-80): 107 % of control
T/C (dose: 12.5 mg/kg/injection, schedule: Q04DX003 (ip), vehicle: saline with Tween-80): 107 % of control
T/C (dose: 25.0 mg/kg/injection, schedule: Q04DX003 (ip), vehicle: saline with Tween-80): 99 % of control

NC(=O)N/N=C1\CCC2CCCCC2C1 (centres undefined)
T/C (dose: 25.0 mg/kg/injection, schedule: Q01DX001 (ip), vehicle: Klucel (hydroxypropylcellulose) (HPC)): 107 % of control
T/C (dose: 50.0 mg/kg/injection, schedule: Q01DX001 (ip), vehicle: Klucel (hydroxypropylcellulose) (HPC)): 101 % of control
T/C (dose: 100.0 mg/kg/injection, schedule: Q01DX001 (ip), vehicle: Klucel (hydroxypropylcellulose) (HPC)): 100 % of control

Nc1nc(Nc2ccc(C3=NCCN3)cc2)nc(Nc2ccc(C3=NCCN3)cc2)n1
T/C (dose: 6.25 mg/kg/injection, schedule: Q01DX009 (ip), vehicle: saline): 122 % of control
T/C (dose: 6.25 mg/kg/injection, schedule: Q01DX009 (ip), vehicle: suspension in saline): 108 % of control

CC(=O)OC1=C2OC(=O)C3(C2C=CC=C1)C1C=CC=CC13 (centres undefined)
T/C [6]: 97 % of control
T/C [7]: 97 % of control
T/C [8]: 111 % of control
